Laboratory results: patent US9670227B2, “Thienopyrimidine derivatives, a process for their preparation and pharmaceutical compositions containing them” (LES LABORATOIRES SERVIER, priority 2013, dated 2017)

How the values were obtained:
Mcl-1 protein = Mcl-1 protein (UniProtKB primary accession number: Q07820) (Homo sapiens, UniProt Q07820); test: Inhibition of Mcl-1 by fluorescence polarisation, Method 1; format: binding; details: fluorescence polarisation; Method 1, or Method 2; read-out: IC50 (M) Mcl-1 FP
Procedure, shortened: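 An 11-point DMSO dilution of compound is mixed with buffer (10 mM HEPES, 150 mM NaCl, 0.05% Tween 20, pH 7.4) carrying 1 nM fluorescein-labelled ligand and 5 nM Mcl-1, final concentrations. Displacement is monitored by fluorescence polarisation.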

[1] = system: H929 multiple myeloma tumour line; test: In vitro cytotoxicity, Microculture Tetrazolium Assay; format: cell-based; details: Homo sapiens, NCI-H929, 48 h, H929 cells, 48 hours exposure, MTT; read-out: IC50 (μM) MTT H929
Experimental: The cytotoxicity studies were carried out on the H929 multiple myeloma tumour line.
The cells are distributed onto microplates and exposed to the test compounds for 48 hours.

Sequence of Mcl-1 protein (Q07820 whole entry): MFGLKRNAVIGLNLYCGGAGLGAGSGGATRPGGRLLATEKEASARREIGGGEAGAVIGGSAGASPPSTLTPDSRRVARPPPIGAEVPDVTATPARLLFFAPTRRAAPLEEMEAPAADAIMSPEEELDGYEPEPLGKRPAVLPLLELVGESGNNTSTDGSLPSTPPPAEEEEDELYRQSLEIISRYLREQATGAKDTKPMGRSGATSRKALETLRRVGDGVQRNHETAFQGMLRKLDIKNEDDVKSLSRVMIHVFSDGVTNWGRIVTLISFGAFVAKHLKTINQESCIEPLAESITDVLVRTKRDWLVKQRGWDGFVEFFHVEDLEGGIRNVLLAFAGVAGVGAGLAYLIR

| SMILES | IC50 (Mcl-1 protein) [M] | IC50 [1] [µM] |
| --- | --- | --- |
| Cc1c(-c2c(-c3ccco3)sc3ncnc(OC(Cc4ccccc4OCc4ccnn4C)C(=O)O)c23)ccc(OCCN(C)C)c1Cl [Example 668, (2R)-2-{[(5Sa)-5-{3-chloro-4-[2-(dimethylamino)ethoxy]-2-methylphenyl}-6-(furan-2-yl)thieno[2,3-d]pyrimidin-4-yl]oxy}-3-{2-[(1-methyl-1H-pyrazol-5-yl)methoxy]phenyl}propanoic acid] | 1.1e-08 | 0.13 |
| CCN1CCN(CCOc2ccc(-c3c(-c4ccco4)sc4ncnc(OC(Cc5ccccc5OCc5ccnc(OC)n5)C(=O)O)c34)c(C)c2Cl)CC1 [Example 670, (2R)-2-{[(5Sa)-5-{3-chloro-4-[2-(4-ethylpiperazin-1-yl)ethoxy]-2-methylphenyl}-6-(furan-2-yl)thieno[2,3-d]pyrimidin-4-yl]oxy}-3-{2-[(2-methoxypyrimidin-4-yl)methoxy]phenyl}propanoic acid] | 3.2e-09 | 0.027 |
| COCCOc1ccccc1CC(Oc1ncnc2sc(-c3ccco3)c(-c3ccc(OCCN4CCN(C(C)C)CC4)c(Cl)c3C)c12)C(=O)O [Example 671, (2R)-2-{[(5Sa)-5-(3-chloro-2-methyl-4-{2-[4-(propan-2-yl)piperazin-1-yl]ethoxy}phenyl)-6-(furan-2-yl)thieno[2,3-d]pyrimidin-4-yl]oxy}-3-[2-(2-methoxyethoxy)phenyl]propanoic acid] | 6.9e-09 | 0.107 |
| COc1nccc(COc2ccccc2CC(Oc2ncnc3sc(-c4ccco4)c(-c4ccc(OCCN5CCN(C(C)C)CC5)c(Cl)c4C)c23)C(=O)O)n1 [Example 672, (2R)-2-{[(5Sa)-5-(3-chloro-2-methyl-4-{2-[4-(propan-2-yl)piperazin-1-yl]ethoxy}phenyl)-6-(furan-2-yl)thieno[2,3-d]pyrimidin-4-yl]oxy}-3-{2-[(2-methoxypyrimidin-4-yl)methoxy]phenyl}propanoic acid] | 4.3e-09 | 0.019 |
| Cc1c(OCCN2CCN(C)CC2)ccc(-c2c(-c3ccco3)sc3ncnc(OC(Cc4ccccc4OCC(F)(F)F)C(=O)O)c23)c1C [Example 673, (2R)-2-[(5Sa)-5-[2,3-dimethyl-4-[2-(4-methylpiperazin-1-yl)ethoxy]phenyl]-6-(2-furyl)thieno[2,3-d]pyrimidin-4-yl]oxy-3-[2-(2,2,2-trifluoroethoxy)phenyl]propanoic acid] | 1.1e-08 | 0.576 |
| CC#Cc1sc2ncnc(OC(Cc3ccccc3OC)C(=O)O)c2c1-c1ccc(OCCN2CCNCC2)c(Cl)c1C [Example 684, (2R)-2-{[(5Sa)-5-{3-chloro-2-methyl-4-[2-(piperazin-1-yl)ethoxy]phenyl}-6-(prop-1-yn-1-yl)thieno[2,3-d]pyrimidin-4-yl]oxy}-3-(2-methoxyphenyl)propanoic acid] | 1.9e-08 | 2.23 |
| CC#Cc1sc2ncnc(OC(Cc3ccccc3OC)C(=O)O)c2c1-c1ccc(OCCN2CCN(C)CC2)c(F)c1C [Example 687, (2R)-2-{[(5Sa)-5-{3-fluoro-2-methyl-4-[2-(4-methylpiperazin-1-yl)ethoxy]phenyl}-6-(prop-1-yn-1-yl)thieno[2,3-d]pyrimidin-4-yl]oxy}-3-(2-methoxyphenyl)propanoic acid] | 2.9e-08 | 3.66 |
| COCOc1cc(F)ccc1CC(Oc1ncnc2sc(-c3ccc(F)o3)c(-c3ccc(OCCN4CCN(C)CC4)c(Cl)c3C)c12)C(=O)O [Example 690, (2R)-2-{[(5Sa)-5-{3-chloro-2-methyl-4-[2-(4-methylpiperazin-1-yl)ethoxy]phenyl}-6-(5-fluorofuran-2-yl)thieno[2,3-d]pyrimidin-4-yl]oxy}-3-[4-fluoro-2-(methoxymethoxy)phenyl]propanoic acid] | 2.3e-08 | 0.178 |
| Cc1c(-c2c(-c3ccc(F)o3)sc3ncnc(OC(Cc4ccc(F)cc4OCc4cnccn4)C(=O)O)c23)ccc(OCCN2CCN(C)CC2)c1Cl [Example 691, (2R)-2-{[(5Sa)-5-{3-chloro-2-methyl-4-[2-(4-methylpiperazin-1-yl)ethoxy]phenyl}-6-(5-fluorofuran-2-yl)thieno[2,3-d]pyrimidin-4-yl]oxy}-3-[4-fluoro-2-(pyrazin-2-ylmethoxy)phenyl]propanoic acid] | 9.6e-09 | 0.037 |
| COc1cc(F)ccc1CC(Oc1ncnc2sc(-c3ccc(F)o3)c(-c3ccc(OCCN4CCN(C)CC4)c(Cl)c3C)c12)C(=O)O [Example 692, (2R)-2-{[(5Sa)-5-{3-chloro-2-methyl-4-[2-(4-methylpiperazin-1-yl)ethoxy]phenyl}-6-(5-fluorofuran-2-yl)thieno[2,3-d]pyrimidin-4-yl]oxy}-3-(4-fluoro-2-methoxyphenyl)propanoic acid] | 1e-08 | 0.079 |

The next lines start with results.

| IC50 (Mcl-1 protein) [M] | SMILES | IC50 [1] [µM] |
| --- | --- | --- |
| 4.9e-09 | CCN1CCN(CCOc2ccc(-c3c(-c4ccco4)sc4ncnc(OC(Cc5ccccc5OCCOC)C(=O)O)c34)c(C)c2Cl)CC1 [Example 669, (2R)-2-{[(5Sa)-5-{3-chloro-4-[2-(4-ethylpiperazin-1-yl)ethoxy]-2-methylphenyl}-6-(furan-2-yl)thieno[2,3-d]pyrimidin-4-yl]oxy}-3-[2-(2-methoxyethoxy)phenyl]propanoic acid] | 0.108 |
| 9.3e-10 | Cc1c(-c2c(-c3ccc(F)nc3)sc3ncnc(OC(Cc4ccccc4OCc4ccnn4CC(F)(F)F)C(=O)O)c23)ccc(OCCN2CCN(C)CC2)c1Cl [Example 693, (2R)-2-{[(5Sa)-5-{3-chloro-2-methyl-4-[2-(4-methylpiperazin-1-yl)ethoxy]phenyl}-6-(6-fluoropyridin-3-yl)thieno[2,3-d]pyrimidin-4-yl]oxy}-3-(2-{[1-(2,2,2-trifluoroethyl)-1H-pyrazol-5-yl]methoxy}phenyl)propanoic acid] | 0.101 |
| 6.4e-09 | COCCOc1ccc(-c2sc3ncnc(OC(Cc4ccccc4OCc4ccnn4CC(F)(F)F)C(=O)O)c3c2-c2ccc(OCCN3CCN(C)CC3)c(Cl)c2C)cn1 [Example 694, (2R)-2-[((5Sa)-5-{3-chloro-2-methyl-4-[2-(4-methylpiperazin-1-yl)ethoxy]phenyl}-6-[6-(2-methoxyethoxy)pyridin-3-yl]thieno[2,3-d]pyrimidin-4-yl)oxy]-3-(2-{[1-(2,2,2-trifluoroethyl)-1H-pyrazol-5-yl]methoxy}phenyl)propanoic acid] | 0.183 |
| 1.6e-08 | Cc1c(-c2c(-c3ccc(OCC(F)(F)F)nc3)sc3ncnc(OC(Cc4ccccc4OCc4ccnn4CC(F)(F)F)C(=O)O)c23)ccc(OCCN2CCN(C)CC2)c1Cl [Example 695, (2R)-2-[((5Sa)-5-{3-chloro-2-methyl-4-[2-(4-methylpiperazin-1-yl)ethoxy]phenyl}-6-[6-(2,2,2-trifluoroethoxy)pyridin-3-yl]thieno[2,3-d]pyrimidin-4-yl)oxy]-3-(2-{[1-(2,2,2-trifluoroethyl)-1H-pyrazol-5-yl]methoxy}phenyl)propanoic acid] | 0.268 |
| 9.6e-09 | COc1ccc(-c2sc3ncnc(OC(Cc4ccccc4OCc4ccnn4CC(F)(F)F)C(=O)O)c3c2-c2ccc(OCCN3CCN(C)CC3)c(Cl)c2C)cn1 [Example 696, (2R)-2-{[(5Sa)-5-{3-chloro-2-methyl-4-[2-(4-methylpiperazin-1-yl)ethoxy]phenyl}-6-(6-methoxypyridin-3-yl)thieno[2,3-d]pyrimidin-4-yl]oxy}-3-(2-{[1-(2,2,2-trifluoroethyl)-1H-pyrazol-5-yl]methoxy}phenyl)propanoic acid] | 0.05 |
| 9.3e-09 | COc1nccc(COc2ccccc2CC(Oc2ncnc3sc(-c4cccc(F)c4F)c(-c4ccc(OCCN5CCN(C)CC5)c(Cl)c4C)c23)C(=O)O)n1 [Example 703, (2R)-2-{[(5Sa)-5-{3-chloro-2-methyl-4-[2-(4-methylpiperazin-1-yl)ethoxy]phenyl}-6-(2,3-difluorophenyl)thieno[2,3-d]pyrimidin-4-yl]oxy}-3-{2-[(2-methoxypyrimidin-4-yl)methoxy]phenyl}propanoic acid] | 0.03 |
| 9.9e-09 | CCn1nccc1COc1ccccc1CC(Oc1ncnc2sc(-c3cccc(F)c3F)c(-c3ccc(OCCN4CCN(C)CC4)c(Cl)c3C)c12)C(=O)O [Example 704, (2R)-2-{[(5Sa)-5-{3-chloro-2-methyl-4-[2-(4-methylpiperazin-1-yl)ethoxy]phenyl}-6-(2,3-difluorophenyl)thieno[2,3-d]pyrimidin-4-yl]oxy}-3-{2-[(1-ethyl-1H-pyrazol-5-yl)methoxy]phenyl}propanoic acid] | 0.025 |
| 1.7e-08 | Cc1c(-c2c(-c3cccc(F)c3F)sc3ncnc(OC(Cc4ccccc4OCc4ccnc(C(F)(F)F)n4)C(=O)O)c23)ccc(OCCN2CCN(C)CC2)c1Cl [Example 705, (2R)-2-{[(5Sa)-5-{3-chloro-2-methyl-4-[2-(4-methylpiperazin-1-yl)ethoxy]phenyl}-6-(2,3-difluorophenyl)thieno[2,3-d]pyrimidin-4-yl]oxy}-3-(2-{[2-(trifluoromethyl)pyrimidin-4-yl]methoxy}phenyl)propanoic acid] | 0.02 |
| 3.6e-09 | COc1nccc(COc2ccccc2CC(Oc2ncnc3sc(-c4ccc(F)c(F)c4)c(-c4ccc(OCCN5CCN(C)CC5)c(Cl)c4C)c23)C(=O)O)n1 [Example 706, (2R)-2-{[(5Sa)-5-{3-chloro-2-methyl-4-[2-(4-methylpiperazin-1-yl)ethoxy]phenyl}-6-(3,4-difluorophenyl)thieno[2,3-d]pyrimidin-4-yl]oxy}-3-{2-[(2-methoxypyrimidin-4-yl)methoxy]phenyl}propanoic acid] | 0.04 |
